Assay results from patent US11672787B2, “Compounds as mPGES-1 inhibitors” (Khondrion IP B.V., priority 2017, dated 2023).
pIC50: −log10 of the molar value. Where a name gives a salt, the structure may show the parent alone. Blank lines part the entries; values can stand above or below the compound they belong to.

Columns and labels:
[1] = molecular target: T1, mPGES-1 (Mus musculus, UniProt Q9JM51); experiment: Microsomal PGES activity: conversion of PGH2 to PGE2 by microsomal fractions of LPS-treated RAW 264.7 cells; type: biochemical, murine; conditions: for pIC50: microsomal fraction of RAW 264.7 cells treated 24 hours with LPS 1 μg/mL, conversion of PGH2 to PGE2, read-out: IC50 (inhibition of mPGES-1 enzyme activity); for mPGES-1 activity in purified microsomes: 30 minutes
T1 construct: endogenous in cells; host or cells: RAW 264.7 cells treated 24 h with 1 ug/mL LPS; 100,000 g microsomal pellet
T1 sequence (Q9JM51 1-153): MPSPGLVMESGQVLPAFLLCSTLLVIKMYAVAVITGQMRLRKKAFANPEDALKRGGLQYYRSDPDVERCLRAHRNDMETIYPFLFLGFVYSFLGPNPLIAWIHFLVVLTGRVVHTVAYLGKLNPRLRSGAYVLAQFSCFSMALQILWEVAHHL
Experimental: FIG. 6. mPGES-1 activity was assayed as conversion of PGH2 to PGE2 by microsomal fractions of RAW 264.7 cells treated for 24 hours with LPS 1 μg/mL to increase mPGES-1 expression. The microsomal fraction was exposed to increasing concentrations of compound to be tested, or 3 μM of know mPGES-1 inhibitors MK866 or PF9184 as positive controls. PGE2 level was normalized on the vehicle treated microsomal samples (100%). (A) compound I-IVb-X; (B) compound I-IVb-AE; (C) compound I-IVb-A-HCl; (D) compound I-IVb-I.
PGES activity was measured by assessment of the conversion of PGH2 to PGE2. In brief, after 24 hours incubation with 1 μg/mL LPS the cells were harvested and lysed by sonication (three times for 10 seconds each, at 1 min intervals) in 300 μl of 1 M Tris-HCl (pH 8.0). After centrifugation of the lysate at 12,000 g for 10 min at 4° C., the supernatant was collected and further centrifuged at 100,000 g for 1 h at 4° C. The pellets (microsomal membranes) were resuspended in 100 μl of 0.1M Tris-HCl, pH 8.0, containing protease inhibitors) and subjected to measurement of microsomal PGES activity. For measurement of PGES activity, an aliquot of each sample equivalent to 50 μg of protein was incubated with 2 μg of PGH2 for 60 s at 24° C. in 0.1 ml of 1 M Tris-HCl containing 2 mM glutathione (Sigma-Aldrich) and 14 μM indomethacin, in the absence or presence of the tested compounds. The reaction was terminated by the addition of 100 mM FeCl2, and further incubated at 20-25° C. for 15 min. After centrifugation of the reaction mixture, the PGE2 concentration in the supernatant was measured with the PGE2 high sensitivity EIA kit (Enzo Life Science) according to manufacturer's instructions.
RAW 264.7 macrophage cells were treated with the inflammatory stimulus LPS to increase the expression of mPGES-1. After 24 hours incubation the microsomes were isolated and exposed to increasing concentration of compound I-IVb-X or a single concentration of previously described mPGES-1 inhibitors MK866 and PF9184 for 30 minutes. The activity of mPGES-1 was then assayed in the microsomes fraction as the conversion of PGH2 to PGE2.
Using the methods as described in Example 1, additional compounds were tested. Table 1 provides an overview of the compounds that were tested, along with corresponding IC50 values. FIGS. 6B, 6C, and 6D show corresponding inhibition curves for I-IVb-AE, I-IVb-A-HCl, and I-IVb-I, respectively.

[2] = test system: RAW 264.7 murine macrophage cells; experiment: Prostaglandin levels (ELISA) in supernatant of LPS-stimulated RAW 264.7 cells; type: cell-based; conditions: 1 μg/mL LPS, 24 hours, increasing concentrations
Experimental: FIG. 2. (A-C) Levels of prostaglandins (PG) PGE2 (A), PGD2 (B) and 6-keto PGF1a (C) in supernatant of RAW 264.7 murine macrophage cells exposed for 24 hours to vehicle or 1 μg/mL lipopolysaccharide (LPS), normalized on vehicle. (D-F) Levels of PGE2, PGD2 and 6-keto PGF1a in supernatant of RAW 264.7 murine macrophage cells exposed for 24 hours to vehicle or 1 μg/mL LPS, alone (set as 100%) or in combination with increasing concentrations of compound I-IVb-X (a compound of general structure (I) wherein T is of general structure (IVb), in the S,R-configuration, and wherein as per compound X the following apply: L=L^19; R^1═H; R^2—R^2′=L^3; R^3═H; indicated as KH) (D), non-selective COX inhibitor indomethacin (E) or COX-2 inhibitor celecoxib (F).
RAW264.7 cells (Sigma-Aldrich, St-Louis) were maintained in DMEM (Thermo Fisher Scientific) containing 10% FBS (Greiner Bio-one), and antibiotics (100 U/ml penicillin, 100 μg/ml streptomycin) under a humidified atmosphere of 5% CO2 at 37° C. The cells were grown to 80% confluence, scraped and then cultured in either 96-well plates (2×10^4 cells/well) or six-well plates (4×10^5 cells/well) for 6-24 hours before an experiment.
(§1) The concentration of the PGE2, PGD2 and 6-keto-PGF1α in culture medium was determined by Enzyme-Linked Immuno Sorbent Assay (ELISA) using, respectively, the PGE2 high sensitivity EIA kit (Enzo Life Science), the Prostaglandin D2-MOX ELISA Kit (Cayman Chemicals) and the 6-keto Prostaglandin F1α ELISA Kit (Cayman Chemicals), according to the manufacturer's instructions. Samples (100 μl) of culture medium from each well were harvested and diluted with the assay buffer.
RAW 264.7 macrophage cells were treated with the inflammatory stimulus LPS alone or in combination with increasing concentrations of compound I-IVb-X (a compound of general structure (I) wherein T is of general structure (IVb), in the S,R-configuration, and wherein as per compound X the following apply: L=L^19; R^1═H; R^2—R^2′=L^3; R^3═H), the NSAID indomethacin or the Coxib Celecoxib. After 24 hours incubation the levels of PGE2, PGD2 and 6-keto PGF1a were quantified in the cell supernatant by ELISA. […] Similar results were obtained with compound I-IVb-X in human primary skin fibroblasts.

[3] = test system: human primary skin fibroblasts; experiment: Prostaglandin levels (ELISA) in supernatant of LPS- or IL-1β-stimulated human primary skin fibroblasts; type: cell-based; conditions: 24 hours
Experimental: FIG. 3. (A-B) Levels of PGE2 (A) and PGD2 (B) in supernatant of human primary skin fibroblasts exposed for 24 hours to vehicle, 1 μg/mL LPS or 1 μg/mL Interleukin-1β (IL-1β), normalized on vehicle. (C-D) Levels of PGE2 and PGD2 in supernatant of human primary skin fibroblasts exposed for 24 hours to 1 μg/mL LPS (C) or 1 μg/mL IL-1β (D) alone (set as 100%) or in combination with increasing concentrations of compound I-IVb-X (indicated as KH).
The cells were maintained in M199, HEPES (Thermo Fischer Scientific) containing 10% FBS (#758093, Greiner Bio-one), 100 IU/ml penicillin and 100 μg/ml streptomycin (#30-002-CI, Corning) under a humidified atmosphere of 5% CO2 at 37° C. The cells were passaged by trypsinization every 4-5 days until they reached the passage number 20, and then discarded. The cells were grown to 80% confluence, trypsinized and then cultured in 96-well plates (4×10^3 cells/well) 24 hours before an experiment.
as §1, with “Samples (100 μl) of culture medium from each well were harvested and diluted with the assay buffer.” left out

[4] = single concentration (3 μM), positive controls

pIC50 [1]: 5.98
SMILES: CC1=C(C)C(=O)C(CC[C@](C)(O)C(=O)Nc2ccc(CN)cc2)=C(C)C1=O [I-IVb-AJ-HCl]

mPGES-1 activity in purified microsomes [1, 4]: decreased
SMILES: O=C(Nc1ccc(-c2ccc(Cl)c(Cl)c2)cc1)C1=C(O)c2ccccc2S(=O)(=O)N1 [PF9184, reference compound]

pIC50 [1]: 6.62
SMILES: CC1=C(C)C(=O)C(CC[C@](C)(O)C(=O)N2CCC(NC(=O)[C@H](C)N)CC2)=C(C)C1=O [I-IVb-AB-HCl]

pIC50 [1]: 5.99
SMILES: CC1=C(C)C(=O)C(CC[C@](C)(O)C(=O)N2CCNCC2)=C(C)C1=O [I-IVb-A-HCl]

mPGES-1 activity in purified microsomes ([1]; increasing concentration of compound): decreased
pIC50 [1]: 6.34
SMILES: CC1=C(C)C(=O)C(CC[C@](C)(O)C(=O)N[C@@H]2CCCNC2)=C(C)C1=O [I-IVb-X]
level of 6-keto PGF1a in cell supernatant [2]: no effect
level of PGD2 in cell supernatant [2]: no effect
level of PGE2 in cell supernatant [2]: dose-dependently reduce
level of PGE2 in supernatant ([3]; 1 μg/mL IL-1β): efficiently reduce
level of PGE2 in supernatant ([3]; 1 μg/mL LPS): efficiently reduce

pIC50 [1]: 5.95
SMILES: CC1=C(C)C(=O)C(CCC(C)(O)C(=O)NCCN(C)C)=C(C)C1=O (stereo not shown) [I-IVb-I]

SMILES: COc1ccc2c(c1)c(CC(=O)O)c(C)n2C(=O)c1ccc(Cl)cc1 [indomethacin, reference compound]
level of 6-keto PGF1a in cell supernatant [2]: dose-dependently reduced
level of PGD2 in cell supernatant [2]: dose-dependently reduced
level of PGE2 in cell supernatant [2]: dose-dependently reduced

pIC50 [1]: 7.74
SMILES: CC1=C(C)C(=O)C(CC[C@](C)(O)C(=O)N[C@H]2CC[C@H](N)CC2)=C(C)C1=O [I-IVb-AE]

mPGES-1 activity in purified microsomes [1, 4]: decreased
SMILES: CC(C)c1ccc2c(c1)c(SC(C)(C)C)c(CC(C)(C)C(=O)O)n2Cc1ccc(Cl)cc1 [MK866, reference compound]

pIC50 [1]: 7.98
SMILES: CC1=C(C)C(=O)C(CCC(C)(O)C(=O)N[C@@H](CCCN)C(=O)O)=C(C)C1=O (stereo partly shown) [I-IVb-N]

SMILES: CC1=C(C)C(=O)C(CC[C@](C)(O)C(=O)N[C@H]2CN3CCC2CC3)=C(C)C1=O [I-IVb-AI-HCl]
pIC50 [1]: 6.14
